{"source": "paper PMC9006653", "about": "(The Journal of Biological Chemistry, 2022)", "origin": "cited, not measured here", "key": {"[1]": {"system": "10 human tumor cell lines"}}, "data": [{"substance": "cycloviolacin O2 [cyO2]", "values": [{"measurement": "fold more active than 11 Möbius cyclotides", "setting": "five cancer cell lines", "result": "over ten-fold"}, {"measurement": "fold more potent (cytotoxicity) compared to varv A and varv F", "setting": "[1]", "result": "over 20 fold"}]}]}
